Like-named read-outs stand apart in the source and are kept apart here.
Columns and labels:
anaesthetized dog [1] = experiment: Activity on the cerebral circulation, anaesthetized dog; format: in vivo; details: for change in vivo at 5 mg/kg / change in vivo at 2.5 mg/kg: Canis lupus familiaris, iv
Experimental: The activity on the cerebral circulation was tested on an anaesthetized dog (sodium pentobarbital 30 mg/kg/i.v.). The vertebral artery flow was measured by means of an electromagnetic perivascular or ultrasonic Doppler effect probe. The intracerebral vascular resistance was estimated by the back pressure of the internal carotid artery. […] The increase in the extraction of cerebral oxygen was estimated by the following equation:(A-V)/A in which: A represents the volume of oxygen in the arterial blood (% volume) measured by hemoreflectometry (KIPP and ZONEN's apparatus) and quantity determination of the haemoglobin (DRABKIN's method). V represents the volume of oxygen in the cerebral venous blood (internal maxillary vein). […] It should be noted that the compounds tested were injected intravenously (rapid injection).

in vivo = details: iv; for LD50: read-out: Toxicity: LD50; for mortality: read-out: Toxicity (Mortality)
Source text: *LD50 or percentage of mortality which is given between brackets

anaesthetized dog [2] = experiment: Antiangorous activity on anaesthetized dog: consumption of oxygen in the left ventricule and cardiac effort (KATZ's index); format: in vivo; details: for inhibition in vivo at 9.1 mg/kg / inhibition in vivo at 2.5 mg/kg / inhibition in vivo at […] / inhibition in vivo at 1.25 mg/kg: Canis lupus familiaris, iv; for inhibition in vivo at […]: 0.15 mg/kg i.v. slow perfusion
In short: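 Katz index taken as mean arterial pressure multiplied by ECG (D2) heart rate, and myocardial O2 use as coronary sinus flow via modified Morawitz cannula times coronary arteriovenous O2 difference. Animals: pentobarbital-anaesthetized dogs (30 mg/kg i.v.), test compounds infused slowly intravenously.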

[3] = dog, 5 mg/kg i.v. rapid injection, read-out: Internal carotid artery back pressure
[4] = dog, 5 mg/kg i.v. rapid injection, read-out: Systemic average arterial pressure
[5] = dog, 5 mg/kg i.v. rapid injection, read-out: Vertebral artery flow
[6] = dog, 5 mg/kg i.v. rapid injection
[7] = 2.5 mg/kg i.v. slow perfusion, read-out: Diminution in consumption of O2
[8] = 2.5 mg/kg i.v. slow perfusion, read-out: Diminution in the cardiac effort (IK)
[9] = dog, 2,5 mg/kg i.v. rapid injection

COc1cc(/C=C/C(=O)N2CCCN(CC(O)COc3ccccc3)CC2)cc(OC)c1OC (stereo not drawn) [760 388]
change in vivo at 5 mg/kg (anaesthetized dog [1]; [3]): -65% | change in vivo at 5 mg/kg (anaesthetized dog [1]; [4]): -44% | change in vivo at 5 mg/kg (anaesthetized dog [1]; [5]): 225% | Internal carotid artery back pressure: in time (anaesthetized dog [1]; [6]): 50 min | Systemic average arterial pressure: in time (anaesthetized dog [1]; [6]): 50 min | Vertebral artery flow: in time (anaesthetized dog [1]; [6]): 50 min

COc1cccc(OCC(O)CN2CCN(C(=O)/C=C/c3cc(OC)c(OC)c(OC)c3)CC2)c1 (stereo not drawn) [760 390]
change in vivo at 5 mg/kg (anaesthetized dog [1]; [3]): -22% | change in vivo at 5 mg/kg (anaesthetized dog [1]; [4]): -13% | change in vivo at 5 mg/kg (anaesthetized dog [1]; [5]): 177% | Internal carotid artery back pressure: in time (anaesthetized dog [1]; [6]): 5 min | Systemic average arterial pressure: in time (anaesthetized dog [1]; [6]): < 10 min | Vertebral artery flow: in time (anaesthetized dog [1]; [6]): 30 min | LD50 (in vivo): 227 mg/kg | Diminution in consumption of O2: in time (anaesthetized dog [2]; 9.1 mg/kg i.v. slow perfusion): 53 min | Diminution in the cardiac effort (IK): in time (anaesthetized dog [2]; 9.1 mg/kg i.v. slow perfusion): 45 min | inhibition in vivo at 9.1 mg/kg (anaesthetized dog [2]; 9.1 mg/kg i.v. slow perfusion, read-out: Diminution in consumption of O2): 64% | inhibition in vivo at 9.1 mg/kg (anaesthetized dog [2]; 9.1 mg/kg i.v. slow perfusion, read-out: Diminution in the cardiac effort (IK)): 60%

COc1cc(/C=C/C(=O)N2CCN(CC(O)COc3cccc(OC)c3OC)CC2)cc(OC)c1OC (stereo not drawn) [760 393]
change in vivo at 5 mg/kg (anaesthetized dog [1]; [3]): -62% | change in vivo at 5 mg/kg (anaesthetized dog [1]; [4]): -33% | change in vivo at 5 mg/kg (anaesthetized dog [1]; [5]): 150% | Systemic average arterial pressure: in time (anaesthetized dog [1]; [6]): 30 min | Vertebral artery flow: in time (anaesthetized dog [1]; [6]): < 2 min | LD50 (in vivo): 319 mg/kg | Diminution in consumption of O2: in time (anaesthetized dog [2]; 2.5 mg/kg i.v. slow perfusion): 15 min | Diminution in the cardiac effort (IK): in time (anaesthetized dog [2]; 2.5 mg/kg i.v. slow perfusion): 15 min | inhibition in vivo at 2.5 mg/kg (anaesthetized dog [2]; [7]): 47% | inhibition in vivo at 2.5 mg/kg (anaesthetized dog [2]; [8]): 5%

COc1cc(/C=C/C(=O)N2CCN(CC(O)COc3ccccc3C(C)=O)CC2)cc(OC)c1OC (stereo not drawn) [760 455]
change in vivo at 5 mg/kg (anaesthetized dog [1]; [3]): -90% | change in vivo at 5 mg/kg (anaesthetized dog [1]; [4]): -39% | change in vivo at 5 mg/kg (anaesthetized dog [1]; [5]): 120% | Internal carotid artery back pressure: in time (anaesthetized dog [1]; [6]): 20 min | Systemic average arterial pressure: in time (anaesthetized dog [1]; [6]): 30 min | Vertebral artery flow: in time (anaesthetized dog [1]; [6]): 6 min | mortality (in vivo; 255 mg/kg i.v.): 50% | Diminution in consumption of O2: in time (anaesthetized dog [2]; 2.5 mg/kg i.v. slow perfusion): 15 min | Diminution in the cardiac effort (IK): in time (anaesthetized dog [2]; 2.5 mg/kg i.v. slow perfusion): 30 min | inhibition in vivo at 2.5 mg/kg (anaesthetized dog [2]; [7]): 45% | inhibition in vivo at 2.5 mg/kg (anaesthetized dog [2]; [8]): 24%

C=CCc1ccccc1OCC(O)CN1CCN(C(=O)/C=C/c2cc(OC)c(OC)c(OC)c2)CC1 (stereo not drawn) [760 518]
change in vivo at 5 mg/kg (anaesthetized dog [1]; [3]): -48% | change in vivo at 5 mg/kg (anaesthetized dog [1]; [4]): -15% | change in vivo at 5 mg/kg (anaesthetized dog [1]; [5]): 180% | Internal carotid artery back pressure: in time (anaesthetized dog [1]; [6]): 5 min | Systemic average arterial pressure: in time (anaesthetized dog [1]; [6]): 5 min | Vertebral artery flow: in time (anaesthetized dog [1]; [6]): 5 min

COc1cc(/C=C/C(=O)N2CCN(CC(O)COc3cccc(C(C)=O)c3)CC2)cc(OC)c1OC (stereo not drawn) [770 458]
change in vivo at 2.5 mg/kg (anaesthetized dog [1]; dog, 2,5 mg/kg i.v. rapid injection, read-out: Internal carotid artery back pressure): -11% | change in vivo at 2.5 mg/kg (anaesthetized dog [1]; dog, 2,5 mg/kg i.v. rapid injection, read-out: Systemic average arterial pressure): -10% | Internal carotid artery back pressure: in time (anaesthetized dog [1]; [9]): 15 min | Systemic average arterial pressure: in time (anaesthetized dog [1]; [9]): 15 min | Increase of the extraction of cerebral oxygen (anaesthetized dog [1]; dog, 2,5 mg/kg i.v. rapid injection, (A-V)/A): +35% | LD50 (in vivo): 250 mg/kg | Diminution in consumption of O2: in time (anaesthetized dog [2]; 2.5 mg/kg i.v. slow perfusion): 23 min | Diminution in the cardiac effort (IK): in time (anaesthetized dog [2]; 2.5 mg/kg i.v. slow perfusion): 15 min | inhibition in vivo at 2.5 mg/kg (anaesthetized dog [2]; [7]): 72% | inhibition in vivo at 2.5 mg/kg (anaesthetized dog [2]; [8]): 25%

COc1cc(/C=C/C(=O)N2CCN(CC(O)COc3ccc([N+](=O)[O-])cc3Cl)CC2)cc(OC)c1OC (stereo not drawn) [771 124]
LD50 (in vivo): 270 mg/kg | Diminution in consumption of O2: in time (anaesthetized dog [2]; 2.5 mg/kg i.v. slow perfusion): 15 min | Diminution in the cardiac effort (IK): in time (anaesthetized dog [2]; 2.5 mg/kg i.v. slow perfusion): 23 min | inhibition in vivo at 2.5 mg/kg (anaesthetized dog [2]; [7]): 34% | inhibition in vivo at 2.5 mg/kg (anaesthetized dog [2]; [8]): 13%

CNC(=O)Nc1ccc(OCC(O)CN2CCN(C(=O)/C=C/c3cc(OC)c(OC)c(OC)c3)CC2)c2c1CCCC2 (stereo not drawn) [771 157]
LD50 (in vivo): 210 mg/kg | Diminution in consumption of O2: in time (anaesthetized dog [2]; 2.5 mg/kg i.v. slow perfusion): 30 min | Diminution in the cardiac effort (IK): in time (anaesthetized dog [2]; 2.5 mg/kg i.v. slow perfusion): 30 min | inhibition in vivo at 2.5 mg/kg (anaesthetized dog [2]; [7]): 53% | inhibition in vivo at 2.5 mg/kg (anaesthetized dog [2]; [8]): 46%

COc1cc(/C=C/C(=O)N2CCN(CC(O)COc3ccc(NC(=O)N(C)C)c4c3OCCO4)CC2)cc(OC)c1OC (stereo not drawn) [771 233]
LD50 (in vivo): 310 mg/kg | inhibition in vivo at […] (anaesthetized dog [2]; read-out: Diminution in consumption of O2): 29% | inhibition in vivo at […] (anaesthetized dog [2]; read-out: Diminution in the cardiac effort (IK)): 9%

CNC(=O)N(C)c1ccc(OCC(O)CN2CCN(C(=O)/C=C/c3cc(OC)c(OC)c(OC)c3)CC2)c2c1OCCO2 (stereo not drawn) [771 238]
mortality (in vivo; 400 mg/kg i.v.): 0% | Diminution in consumption of O2: in time (anaesthetized dog [2]; 1.25 mg/kg i.v. slow perfusion): 30 min | Diminution in the cardiac effort (IK): in time (anaesthetized dog [2]; 1.25 mg/kg i.v. slow perfusion): 30 min | inhibition in vivo at 1.25 mg/kg (anaesthetized dog [2]; 1.25 mg/kg i.v. slow perfusion, read-out: Diminution in consumption of O2): 40% | inhibition in vivo at 1.25 mg/kg (anaesthetized dog [2]; 1.25 mg/kg i.v. slow perfusion, read-out: Diminution in the cardiac effort (IK)): 38%
